Literature values, collected in article PMC3538728 (PLoS ONE, 2013).
Like-named read-outs stand apart in the source and are kept apart here.

Assays:
[1] = design: method as in PMID 19527190; conditions: early in preclinical studies; cited from earlier work
[2] = cited from earlier work; for outcome in phase III clinical trials: relative to placebo
[3] = target: γ-secretase; design: method as in PMID 19694467, PMID 21141968, PMID 19402777, PMID 22323718, PMID 22798753; conditions: cited from earlier work

C[C@H](NC(=O)[C@@H](O)c1cc(F)cc(F)c1)C(=O)N[C@@H]1C(=O)N(C)c2ccccc2-c2ccccc21 [LY-411,575, N2-[(2S)-2-(3,5-difluorophenyl)-2-hydroxyethanoyl]-N1-[(7S)-5-methyl-6-oxo-6,7-di hydro-5H-dibenzo[b,d]azepin-7-yl]-L-alaninamide]
toxicity in preclinical studies [1]: toxic side-effects

NC(=O)[C@@H](CCC(F)(F)F)N(Cc1ccc(-c2ncon2)cc1F)S(=O)(=O)c1ccc(Cl)cc1 [avagacestat]
outcome in phase II clinical studies ([2]; phase II): Dose dependent cognitive decline

CC(C)[C@H](O)C(=O)N[C@@H](C)C(=O)N[C@@H]1C(=O)N(C)CCc2ccccc21 [semagacestat]
IC50 [3]: ~20 nM | outcome in phase III clinical trials [2]: irreversibly advance cognitive decline | outcome in phase III clinical trials ([2]; listed as Semagacestat): toxic side-effects and irreversible cognitive decline | tolerance ([2]; preclinical studies and short phase I and phase II clinical trials): good tolerance
